The target of the test is T1, cereblon (CRBN)—DNA damage protein 1 (DDB1) complex (Homo sapiens, UniProt Q96SW2).
T1 construct: encoding amino acid residues 1 to 442 (Uniprot Q96SW2); hexahistidine (N); thrombin cleavage site (N); made in house; host or cells: Sf9 insect cells (baculovirus co-infection)
Briefly: Cereblon HTRF binding assay. A digest of the protocol:
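Biotinylated His-tagged CRBN-DDB1 (0.2 nM, baculovirus-expressed) was combined with 0.2 nM terbium cryptate streptavidin and 2 nM Cy5-lenalidomide probe in 50 mM Tris-HCl pH 7.5, 100 mM NaCl, 1 mM TCEP, 500 μM EDTA, 0.01% Pluronic F127 for 2 h at r.t. HTRF ratio was normalized to plate controls. IC50 came from a Hill fit, given as mean of one or more experiments.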
A general note: TR-FRET usually uses a lanthanide donor and a delayed reading to cut background.

T1 sequence (Q96SW2 with tags, fused parts or gaps): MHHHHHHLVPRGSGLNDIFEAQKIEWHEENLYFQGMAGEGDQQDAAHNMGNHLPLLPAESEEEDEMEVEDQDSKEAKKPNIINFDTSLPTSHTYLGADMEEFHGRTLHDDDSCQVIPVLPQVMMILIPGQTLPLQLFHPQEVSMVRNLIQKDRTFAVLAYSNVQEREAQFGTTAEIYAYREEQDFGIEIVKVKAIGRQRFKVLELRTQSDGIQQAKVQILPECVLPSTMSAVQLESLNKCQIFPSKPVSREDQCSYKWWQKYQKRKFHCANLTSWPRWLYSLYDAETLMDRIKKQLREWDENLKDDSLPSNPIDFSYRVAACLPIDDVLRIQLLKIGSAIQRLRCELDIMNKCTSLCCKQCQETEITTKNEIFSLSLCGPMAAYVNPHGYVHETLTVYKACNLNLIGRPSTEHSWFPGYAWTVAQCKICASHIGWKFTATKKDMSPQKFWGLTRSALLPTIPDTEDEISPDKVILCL

Take `CN1Cc2ccc(N3CCC(=O)NC3=O)cc2C1` [Example 25, 1-(2-Methylisoindolin-5-yl)dihydropyrimidine-2,4 (1H,3H)-dione]: the 50% inhibitory concentration (IC50) (in general, the concentration needed to halve the response being measured) stood at 2960 nM.

The compound `O=C1CCN(c2ccc3c(ccn3C3CCNCC3)c2)C(=O)N1` [Example 113, 1-(1-(Piperidin-4-yl)-1H-indol-5-yl)dihydropyrimidine-2,4 (1H,3H)-dione] showed an IC50 of 1080 nM.

As to `CNC(=O)Cc1c[nH]c2cc(N3CCC(=O)NC3=O)ccc12` [Example 66, 2-(6-(2,4-Dioxotetrahydropyrimidin-1 (2H)-yl)-1H-indol-3-yl)-N-methylacetamide], the IC50 came out at 264 nM.

Consider `O=C1CCN(c2ccc3cc(C4CCNCC4)[nH]c3c2)C(=O)N1` [Example 81, 1-(2-(Piperidin-4-yl)-1H-indol-6-yl)dihydropyrimidine-2,4 (1H,3H)-dione], for which the IC50 was found to be 65 nM.

In the case of `Cc1cn(-c2ccc3cc[nH]c3c2)c(=O)[nH]c1=O` [Example 15, 1-(1H-Indol-6-yl)-5-methylpyrimidine-2,4 (1H,3H)-dione], the IC50 came to 10600 nM.

In turn, `O=C1CCN(c2ccc3c(c2)CNCC3)C(=O)N1` [Example 28, 1-(1,2,3,4-Tetrahydroisoquinolin-7-yl)dihydropyrimidine-2,4 (1H,3H)-dione] yielded an IC50 of 17000 nM.

In turn, `CN1CCN(c2nc3ccc(N4CCC(=O)NC4=O)cc3o2)CC1` [Example 99, 1-(2-(4-Methylpiperazin-1-yl)benzo[d]oxazol-6-yl)dihydropyrimidine-2,4 (1H,3H)-dione] displayed a half-maximal inhibitory concentration (IC50) of 4560 nM.

Compound `CN1CCc2ccc(N3CCC(=O)NC3=O)cc21` [Example 23, 1-(1-Methylindolin-6-yl)dihydropyrimidine-2,4 (1H,3H)-dione] had an IC50 of 1060 nM.

For `Cn1ccc2c(N3CCC(=O)NC3=O)cc(N3CCNCC3)cc21` [Example 90, 1-(1-Methyl-6-(piperazin-1-yl)-1H-indol-4-yl)dihydropyrimidine-2,4 (1H,3H)-dione], the concentration for half-maximal inhibition (IC50) turned out to be 771 nM.

In the case of `O=C1CCN(c2ccc3c(c2)cc2n3CCNC2)C(=O)N1` [Example 104, 1-(1,2,3,4-Tetrahydropyrazino[1,2-a]indol-8-yl)dihydropyrimidine-2,4 (1H,3H)-dione], the IC50 is 283 nM.

`O=C1CCN(c2ccc3c(c2)NCC3)C(=O)N1` [Example 22, 1-(Indolin-6-yl)dihydropyrimidine-2,4 (1H,3H)-dione] had an IC50 of 487 nM.

The compound `COc1cc2cc[nH]c2cc1N1CCC(=O)NC1=O` [Example 61, 1-(5-Methoxy-1H-indol-6-yl)dihydropyrimidine-2,4 (1H,3H)-dione] yielded an IC50 of 1510 nM.

Compound `CN1CCN(c2c[nH]c3ccc(N4CCC(=O)NC4=O)cc23)CC1` [Example 78, 1-(3-(4-Methylpiperazin-1-yl)-1H-indol-5-yl)dihydropyrimidine-2,4 (1H,3H)-dione] came in with an IC50 of 1870 nM.

The compound `Cc1c(-n2ccc(=O)[nH]c2=O)cnc2cc[nH]c12` [Example 48, 1-(7-Methyl-1H-pyrrolo[3,2-b]pyridin-6-yl)pyrimidine-2,4 (1H,3H)-dione] returned an IC50 of 1970 nM.

On to `O=C1CCN(c2ccc3nn[nH]c3c2)C(=O)N1` [Example 38, 1-(1H-Benzo[d][1,2,3]triazol-6-yl)dihydropyrimidine-2,4 (1H,3H)-dione], for which the IC50 is 566 nM.

On to `CN1CCN(c2ccc(N3CCC(=O)NC3=O)c3ccn(C)c23)CC1` [Example 126, 1-(1-Methyl-7-(4-methylpiperazin-1-yl)-1H-indol-4-yl)dihydropyrimidine-2,4 (1H,3H)-dione], for which the half-inhibitory concentration (IC50) is 577 nM.

Compound `O=C1CCN(c2cccc3c2CNC3=O)C(=O)N1` [Example 43, 1-(1-Oxoisoindolin-4-yl)dihydropyrimidine-2,4 (1H,3H)-dione] had an IC50 of 3630 nM.

Compound `O=C1CCN(c2ccc3cn[nH]c3c2)C(=O)N1` [Example 42, 1-(1H-Indazol-6-yl)dihydropyrimidine-2,4 (1H,3H)-dione] had an IC50 of 2110 nM.

In turn, `CN1CCC(n2ccc3cc(N4CCC(=O)NC4=O)ccc32)CC1` [Example 114, 1-(1-(1-Methylpiperidin-4-yl)-1H-indol-5-yl)dihydropyrimidine-2,4 (1H,3H)-dione] came in with an IC50 of 1050 nM.

`Cc1c(N2CCC(=O)NC2=O)cnc2cc[nH]c12` [Example 49, 1-(7-Methyl-1H-pyrrolo[3,2-b]pyridin-6-yl)dihydropyrimidine-2,4 (1H,3H)-dione]: the IC50 was 124 nM.

Consider `CN1CCN(c2cn(C)c3cc(N4CCC(=O)NC4=O)ccc23)CC1` [Example 75, 1-(1-Methyl-3-(4-methylpiperazin-1-yl)-1H-indol-6-yl)dihydropyrimidine-2,4 (1H,3H)-dione], for which the IC50 is 4040 nM.

For the compound `O=C1CCN(c2cc3[nH]ccc3cc2F)C(=O)N1` [Example 60, 1-(5-Fluoro-1H-indol-6-yl)dihydropyrimidine-2,4 (1H,3H)-dione], the IC50 was determined as 444 nM.

The compound `Cn1c(C2CCNCC2)cc2ccc(N3CCC(=O)NC3=O)cc21` [Example 84, 1-(1-Methyl-2-(piperidin-4-yl)-1H-indol-6-yl)dihydropyrimidine-2,4 (1H,3H)-dione] gave an IC50 of 357 nM.

The compound `O=C1CCN(c2ccc3c(c2)CCNC3)C(=O)N1` [Example 30, 1-(1,2,3,4-Tetrahydroisoquinolin-6-yl)dihydropyrimidine-2,4 (1H,3H)-dione] yielded an IC50 of 8680 nM.

Consider `CNC(=O)Cn1ccc2c(N3CCC(=O)NC3=O)cccc21` [Example 70, 2-(4-(2,4-Dioxotetrahydropyrimidin-1 (2H)-yl)-1H-indol-1-yl)-N-methylacetamide], for which the IC50 worked out at 1010 nM.

Compound `O=C1CCN(c2cnc3cnoc3c2)C(=O)N1` [Example 36, 1-(Isoxazolo[4,5-b]pyridin-6-yl)dihydropyrimidine-2,4 (1H,3H)-dione] gave a half-inhibitory concentration (IC50) of 115 nM.

As to `Cc1c(N2CCC(=O)NC2=O)c(F)cc2cc[nH]c12` [Example 58, 1-(5-Fluoro-7-methyl-1H-indol-6-yl)dihydropyrimidine-2,4 (1H,3H)-dione], the 50% inhibitory concentration (IC50) was 288 nM.

Compound `O=C1CCN(c2ccc3cn(C4CCNCC4)nc3c2)C(=O)N1` [Example 109, 1-(2-(Piperidin-4-yl)-2H-indazol-6-yl)dihydropyrimidine-2,4 (1H,3H)-dione] registered an IC50 of 1030 nM.

`CN1Cc2ccc(N3CCC(=O)NC3=O)cc2C1=O` [Example 10, 1-(2-Methyl-3-oxoisoindolin-5-yl)dihydropyrimidine-2,4 (1H,3H)-dione]: the half-inhibitory concentration (IC50) amounted to 7880 nM.

Regarding `CN1CCN(c2ccc(N3CCC(=O)NC3=O)c3cc[nH]c23)CC1` [Example 124, 1-(7-(4-Methylpiperazin-1-yl)-1H-indol-4-yl)dihydropyrimidine-2,4 (1H,3H)-dione], the IC50 was 527 nM.

`O=c1ccn(-c2ccc3cc[nH]c3c2)c(=O)[nH]1` [Example 13, 1-(1H-Indol-6-yl)pyrimidine-2,4 (1H,3H)-dione] had an IC50 of 765 nM.

On to `CN1CCC(c2cc3c(N4CCC(=O)NC4=O)cccc3[nH]2)CC1` [Example 87, 1-(2-(1-Methylpiperidin-4-yl)-1H-indol-4-yl)dihydropyrimidine-2,4 (1H,3H)-dione], for which the IC50 was determined as 379 nM.

The compound `N#Cc1cc(N2CCC(=O)NC2=O)cc2[nH]ccc12` [Example 134, 6-(2,4-Dioxotetrahydropyrimidin-1 (2H)-yl)-1H-indole-4-carbonitrile] returned an IC50 of 1660 nM.

For the origin of these results see patent US20230374007A1, “COMPOUNDS AND THEIR USE IN TREATING CANCER” (AstraZeneca AB, priority 2020, published 2023).
